Measurements taken from patent US9676760B2, “Fused heterocyclic compounds as ion channel modulators” (Gilead Sciences, Inc., priority 2011, dated 2017).

Key:
[1] = target: cardiac L-type Ca2+ channel (hCav1.2) (Homo sapiens, UniProt Q13936); assay: L-type Ca2+ channel assay - ChanTest (PatchXpress, CHO cells); format: cell-based
Description: Selected compounds were screened for block of the cardiac L-type Ca^2+ channel (hCav1.2, encoded by the human CACNA1C gene and coexpressed with the beta 2 subunit, encoded by the human CACNB2 gene and alpha2delta1, encoded by the CACNA2D1 gene). The Ca^2+ channel is heterologously expressed in a CHO (Chinese Hamster Ovary) cell line. Cells are maintained following standard tissue culture procedures and stable channel expression is maintained with appropriate selection antibiotics in the culture medium. Cells are harvested for testing on the PatchXpress automated patch clamp (Model 7000A, Molecular Devices, Sunnyvale, Calif.) by washing twice with Hank's Balanced Salt Solution, treating the cells with trypsin and re-suspending cells in culture medium (4-6×10^6 cells in 20 mL). Cells in suspension are allowed to recover for 10 minutes in a tissue culture incubator set at 37° C. in a humidified 95% air, 5% CO2 atmosphere.
The following solutions are used for electrophysiological recordings. The external solution contains (mM): 137 NaCl, 4 KCl, 1.8 CaCl2, 1 MgCl2, 10 Glucose, 10 HEPES (pH 7.4 with NaOH). The internal solution contains (mM): 130 Cs Aspartate, 5 MgCl2, 10 EGTA, 4 ATP, 0.5 GTP, 10 HEPES, (pH adjusted to 7.2 with N-methyl-D-glucamine).
Vehicle is applied to naive cells (n≧2, where n=the number cells), for a 5-10 minute exposure interval. Each solution exchange is performed in quadruplicate. At the end of each experiment, a saturating concentration of nifedipine (10 μM) is added to block hCav1.2 current. Leak current is digitally subtracted from the total membrane current record.
Test compound stock solutions are prepared by addition of dimethyl sulfoxide (DMSO) and stored frozen. Each test compound DMSO stock is sonicated (Model 2510/5510, Branson Ultrasonics, Danbury, Conn.), at ambient room temperature for at least 20 minutes to facilitate dissolution. Test compound concentrations are prepared fresh daily by diluting stock solutions into the standard extracellular physiological saline solution (see above). The maximum percent of DMSO added with compound is 0.1%. All test compound and control solutions are placed in a glass-lined 96-well compound plate before loading on PatchXpress.
Two concentrations (1, 10 μM) of each test compound are applied at five (5) minute intervals via disposable polyethylene micropipette tips to naïve cells (n≧2, where n=the number cells/concentration). Each test compound concentration is added to the cell in quadruplicate. […]
Onset and steady state block of hCav1.2 (α1C/β2/α2δ[…] channels is measured using a stimulus voltage pattern consisting of a depolarizing test pulse (duration, 200 ms; amplitude, 10 mV) at 10 s intervals from a −80 mV holding potential. Peak current is measured during a step to 10 mV.

[2] = target: hNav 1.8 sodium channel isoform (Homo sapiens, UniProt Q9Y5Y9); assay: hNav1.8 sodium channel block; format: cell-based
Description: Compounds of this disclosure that block cardiac late INa may also mediate UDB of other Na^+ channel isoforms including the major Na^+ channel isoforms in peripheral nervous system pain fibers, NaV1.7 and 1.8. Compounds of this disclosure that block these channels may also be useful to decrease neuropathic pain.
The inhibition of either hNav 1.7 and hNav 1.8 isoforms or the inhibition of both channels when stimulated at these frequencies support the use of compounds of this disclosure to decrease neuropathic pain.

[3] = test system: Female New Zealand rabbits; assay: Ischemia-induced ST segment elevation in anesthetized rabbits; format: in vivo, rabbit
Description: This study was undertaken to determine the anti-ischemic effects of compounds of the present disclosure in an in vivo rabbit model.
Female New Zealand rabbits (3.0-4.0 kg) were purchased from Western Oregon Rabbitry. Animals were housed on a 12-h light and dark cycle and received standard laboratory chow and water. All experiments were performed in accordance with the Guide for the Care and Use of Laboratory Animals published by The National Research Council and with the experimental protocol approved by the Institutional Animal Care Committee of Gilead Sciences, Inc.
Rabbits were anesthetized with ketamine (35 mg/kg) and xylazine (5 mg/kg) intramuscular injection (im). A tracheotomy was performed and the trachea was intubated with an endotracheal tube. The animal was ventilated with room air supplemented with oxygen using a pressure control animal ventilator (Kent Scientific Corp., Torrington, Conn.) at a respiratory rate of 40 strokes/min and peak inspiration pressure of 10 mmH2O, which was adjusted to keep blood gases and pH within the physiological range (iSTAT clinic analyzer, Heska Corp.; Waukesha, Wis.). The left femoral artery was cannulated for the measurement of blood pressure (BP). Blood samples were also withdrawn from femoral artery. The right external jugular vein was cannulated for drug/vehicle administration. Needle electrodes were inserted subcutaneously into the limbs for recording of the surface electrocardiogram (ECG). The heart was exposed via an incision in the 4th intercostal space (4th and/or 5th ribs were cut for a clear surgical vision). The chest was opened and a pericardial cradle was formed using 4 retractors. A coronary artery occluder, comprised of a snare made of 5 cm PE-10 tubing with a 6-0 Prolene polypropylene suture in it, was placed loosely around the left anterior descending artery (LAD) at its origin. Two unipolar electrodes, made with teflon coated silver wire attached to a small patch of filter paper, were attached on the surface of the ischemic and normal regions of the left ventricle to record epicardial electrocardiogram. Reference electrodes were placed in the open incision of the neck. The body temperature of the animal was monitored via a rectal thermometer and maintained at 37-40° C. by adjusting the surface temperature of the surgical table. Regional ischemia (15 min) was induced by ligating the LAD followed by 15 min of reperfusion caused by releasing the ligation. The heart was excised at the end of the experiment and the LAD was re-ligated. The ischemic area was visualized by perfusing the heart with 1% Evans blue in saline and calculated as a percentage of total ventricular weight. Rabbits with ischemic area less than 10% or larger than 25% were excluded from the analysis. Animals were randomly assigned to vehicle and test compound groups. Test compounds was dissolved in 5% NMP, 30% PG, 45% PEG 400 and 20% de-ionized water (dH2O). Test compound was given as an iv bolus at 0.1, 0.2 and 0.4 mg/kg. After 30 min of dosing, the heart was subjected to 15 min of ischemia followed by 15 min of reperfusion.

Sequence of cardiac L-type Ca2+ channel (hCav1.2) (Q13936 whole entry): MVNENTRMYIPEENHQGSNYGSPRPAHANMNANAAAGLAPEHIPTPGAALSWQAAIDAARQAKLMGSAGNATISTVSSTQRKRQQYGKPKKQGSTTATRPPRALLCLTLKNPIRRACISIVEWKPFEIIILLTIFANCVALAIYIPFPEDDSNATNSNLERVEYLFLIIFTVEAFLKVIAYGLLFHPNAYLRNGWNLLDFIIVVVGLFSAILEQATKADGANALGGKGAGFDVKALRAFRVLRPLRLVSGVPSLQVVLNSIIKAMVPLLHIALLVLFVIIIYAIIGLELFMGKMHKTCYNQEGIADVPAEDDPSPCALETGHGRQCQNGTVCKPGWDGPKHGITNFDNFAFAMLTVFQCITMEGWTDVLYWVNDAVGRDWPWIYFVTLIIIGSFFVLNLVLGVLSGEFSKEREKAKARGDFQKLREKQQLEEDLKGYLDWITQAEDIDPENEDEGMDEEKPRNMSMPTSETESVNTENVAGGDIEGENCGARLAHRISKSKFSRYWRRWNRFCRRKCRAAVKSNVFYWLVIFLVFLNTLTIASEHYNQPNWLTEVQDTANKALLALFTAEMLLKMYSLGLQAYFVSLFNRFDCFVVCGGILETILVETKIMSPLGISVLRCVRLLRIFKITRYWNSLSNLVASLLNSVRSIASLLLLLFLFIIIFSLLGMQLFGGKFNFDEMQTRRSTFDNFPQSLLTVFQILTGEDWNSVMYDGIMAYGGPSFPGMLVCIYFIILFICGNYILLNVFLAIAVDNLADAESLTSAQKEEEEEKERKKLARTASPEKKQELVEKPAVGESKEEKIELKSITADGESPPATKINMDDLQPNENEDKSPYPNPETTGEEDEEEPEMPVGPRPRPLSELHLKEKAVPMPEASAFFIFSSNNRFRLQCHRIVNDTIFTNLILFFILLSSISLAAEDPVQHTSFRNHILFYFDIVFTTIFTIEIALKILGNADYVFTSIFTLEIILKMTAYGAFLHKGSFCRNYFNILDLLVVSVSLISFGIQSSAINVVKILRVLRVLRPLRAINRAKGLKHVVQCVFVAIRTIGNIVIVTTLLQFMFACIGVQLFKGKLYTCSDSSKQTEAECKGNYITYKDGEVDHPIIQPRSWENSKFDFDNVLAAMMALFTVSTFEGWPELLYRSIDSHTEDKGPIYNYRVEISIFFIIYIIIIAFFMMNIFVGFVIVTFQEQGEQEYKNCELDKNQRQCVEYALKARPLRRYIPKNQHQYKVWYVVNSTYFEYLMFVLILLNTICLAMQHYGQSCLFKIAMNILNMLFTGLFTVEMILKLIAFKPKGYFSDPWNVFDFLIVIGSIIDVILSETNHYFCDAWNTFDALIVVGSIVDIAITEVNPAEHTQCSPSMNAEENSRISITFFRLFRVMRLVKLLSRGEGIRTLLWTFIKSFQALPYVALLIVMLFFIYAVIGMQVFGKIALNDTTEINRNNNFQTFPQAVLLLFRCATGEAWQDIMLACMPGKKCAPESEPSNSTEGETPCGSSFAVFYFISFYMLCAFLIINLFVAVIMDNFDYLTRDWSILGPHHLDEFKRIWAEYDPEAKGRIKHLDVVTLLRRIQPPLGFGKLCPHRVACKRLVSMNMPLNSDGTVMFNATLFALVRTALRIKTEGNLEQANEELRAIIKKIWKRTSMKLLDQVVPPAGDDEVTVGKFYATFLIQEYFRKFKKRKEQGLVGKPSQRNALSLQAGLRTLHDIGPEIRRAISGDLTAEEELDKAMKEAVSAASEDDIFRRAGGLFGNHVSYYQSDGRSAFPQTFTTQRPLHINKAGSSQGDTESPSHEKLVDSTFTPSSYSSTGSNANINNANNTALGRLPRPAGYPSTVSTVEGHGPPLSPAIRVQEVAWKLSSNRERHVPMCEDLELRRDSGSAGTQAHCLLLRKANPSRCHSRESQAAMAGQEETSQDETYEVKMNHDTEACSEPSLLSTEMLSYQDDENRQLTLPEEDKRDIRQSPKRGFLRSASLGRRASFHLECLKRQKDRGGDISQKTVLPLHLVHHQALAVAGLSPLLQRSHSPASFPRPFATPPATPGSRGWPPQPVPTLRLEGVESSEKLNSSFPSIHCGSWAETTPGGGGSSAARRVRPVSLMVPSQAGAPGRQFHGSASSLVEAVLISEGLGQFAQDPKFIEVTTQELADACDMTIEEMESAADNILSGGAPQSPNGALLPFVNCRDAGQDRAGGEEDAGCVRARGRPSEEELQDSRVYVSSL
Sequence of cardiac L-type Ca2+ channel (hCav1.2) (Q08289 whole entry partner): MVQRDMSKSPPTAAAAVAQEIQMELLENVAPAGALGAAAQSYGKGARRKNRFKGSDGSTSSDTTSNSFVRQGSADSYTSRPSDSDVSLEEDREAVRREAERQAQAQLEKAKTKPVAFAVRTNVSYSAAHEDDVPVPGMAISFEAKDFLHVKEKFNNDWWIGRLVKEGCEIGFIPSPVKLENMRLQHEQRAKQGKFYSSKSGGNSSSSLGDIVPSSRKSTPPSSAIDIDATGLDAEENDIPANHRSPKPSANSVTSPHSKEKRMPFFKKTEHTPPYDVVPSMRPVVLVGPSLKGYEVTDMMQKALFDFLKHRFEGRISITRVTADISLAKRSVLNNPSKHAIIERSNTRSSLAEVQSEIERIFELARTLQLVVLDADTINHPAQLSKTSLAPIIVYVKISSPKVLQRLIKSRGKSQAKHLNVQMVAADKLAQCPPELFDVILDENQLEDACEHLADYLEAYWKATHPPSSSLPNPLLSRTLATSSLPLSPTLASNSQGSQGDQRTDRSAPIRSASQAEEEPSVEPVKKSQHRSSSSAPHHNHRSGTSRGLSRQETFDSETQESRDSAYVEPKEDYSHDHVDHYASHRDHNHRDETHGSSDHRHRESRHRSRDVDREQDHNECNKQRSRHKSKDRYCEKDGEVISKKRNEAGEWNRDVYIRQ
Sequence of cardiac L-type Ca2+ channel (hCav1.2) (P54289 25-956 partner limits assumed): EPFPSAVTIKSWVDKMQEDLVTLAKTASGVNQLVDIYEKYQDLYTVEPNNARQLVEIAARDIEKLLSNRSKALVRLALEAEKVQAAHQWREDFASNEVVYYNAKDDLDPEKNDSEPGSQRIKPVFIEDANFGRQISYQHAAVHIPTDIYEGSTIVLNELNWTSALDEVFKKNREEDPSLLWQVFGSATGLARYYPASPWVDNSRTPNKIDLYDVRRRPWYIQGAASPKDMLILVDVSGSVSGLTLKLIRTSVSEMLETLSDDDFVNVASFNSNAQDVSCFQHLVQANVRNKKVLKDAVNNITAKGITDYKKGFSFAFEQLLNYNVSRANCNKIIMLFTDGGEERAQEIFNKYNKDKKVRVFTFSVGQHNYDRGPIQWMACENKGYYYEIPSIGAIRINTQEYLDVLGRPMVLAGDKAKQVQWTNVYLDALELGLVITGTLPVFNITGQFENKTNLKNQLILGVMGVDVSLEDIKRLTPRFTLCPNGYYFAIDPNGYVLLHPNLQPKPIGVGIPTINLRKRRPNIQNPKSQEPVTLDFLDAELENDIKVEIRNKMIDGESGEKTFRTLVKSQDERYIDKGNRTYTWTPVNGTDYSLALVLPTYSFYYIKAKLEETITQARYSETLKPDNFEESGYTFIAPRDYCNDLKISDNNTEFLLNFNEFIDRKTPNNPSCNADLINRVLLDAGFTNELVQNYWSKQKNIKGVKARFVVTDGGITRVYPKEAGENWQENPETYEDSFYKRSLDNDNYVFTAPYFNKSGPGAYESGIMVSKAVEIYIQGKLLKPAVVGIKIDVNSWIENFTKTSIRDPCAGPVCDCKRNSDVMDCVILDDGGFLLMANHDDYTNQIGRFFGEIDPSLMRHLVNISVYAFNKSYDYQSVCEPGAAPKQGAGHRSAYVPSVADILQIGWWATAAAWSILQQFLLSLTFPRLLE
Sequence of cardiac L-type Ca2+ channel (hCav1.2) (P54289 957-1103 partner limits assumed): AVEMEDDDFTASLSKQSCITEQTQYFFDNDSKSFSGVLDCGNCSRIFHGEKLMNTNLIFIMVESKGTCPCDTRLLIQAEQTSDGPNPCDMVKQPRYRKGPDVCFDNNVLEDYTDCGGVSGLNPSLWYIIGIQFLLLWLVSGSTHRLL

O=C1c2cc(-c3ccc(OC(F)(F)F)cc3)ccc2OCCN1Cc1ncccn1 [II-73, 4-(pyrimidin-2-ylmethyl)-7-(4-(trifluoromethoxy)phenyl)-3,4-dihydrobenzo[f][1,4]oxazepin-5(2H)-one] was tested, and the “blocked the hCav1.2 late current” value ([1]; 1 μM concentration) was 14%, the “blocked the hCav1.2 peak current” value ([1]; 1 μM concentration) was 32% and the “blocked the hCav1.2 late current” value ([1]; 10 μM concentration) was 47%. For the same compound, the “blocked the hCav1.2 peak current” value ([1]; 10 μM concentration) was 79%, the IC50 ([2]; 10 Hz frequency) was over 10000 nM and the IC50 ([2]; frequency of 25 Hz) was 1500 nM. The “area under curve (AUC) for the ST segment height reduced (vs. control)” value ([3]; 0.5 μM plasma concentration, iv bolus, 15 min ischemia) was 93%, the “effect on blood pressure (BP), heart rate (HR) and ECG intervals prior to the ischemia” value ([3]; at the plasma concentration levels studied) was “no significant effect” and the “ischemia-induced ST elevation” value ([3]; iv bolus 30 min before 15 min ischemia) was “dose-dependently prevented”.
